From patent US20260199267A1, “METHOD FOR PREPARING ENDO-C[…] FROM VEGETABLE OILS USING LIPASE AND USE THEREOF” (KOREA RESEARCH INSTITUTE OF BIOSCIENCE AND BIOTECHNOLOGY, priority 2022, published 2026)

Key:
Assay type in all cases: cell-based
[1] = tested on: IL-1β production in LPS-treated RAW 264.7 cells; experiment: pro-inflammatory cytokine production, ELISA; conditions: reference inhibitor, concentration not given, 24 h
Protocol: (§1) RAW 264.7 cells were dispensed into a 24-well plate at a density of […], incubated for 24 hours, and then treated with a non-cytotoxic concentration of the sample and LPS ([…]), followed by an additional 24-hour incubation. The cell culture was centrifuged at 5,000 rpm for 5 minutes, and the supernatant was collected. The levels of […] (FIG. 88), IL-6 (FIG. 89), and TNF-α (FIG. 90) were then measured using an ELISA kit according to the manufacturer's instructions.

[2] = tested on: IL-6 production in LPS-treated RAW 264.7 cells; experiment: pro-inflammatory cytokine production, ELISA; conditions: reference inhibitor, concentration not given, 24 h
Protocol: as §1

[3] = tested on: TNF-α production in LPS-treated RAW 264.7 cells; experiment: pro-inflammatory cytokine production, ELISA; conditions: reference inhibitor, concentration not given, 24 h
Protocol: as §1

[4] = target: cannabinoid receptor 2 (CB2) (Homo sapiens, UniProt P34972); experiment: agonist effect on cannabinoid receptor, cAMP measurement; conditions: CB2, concentration-response graph
cannabinoid receptor 2 (CB2), sequence (P34972 whole entry): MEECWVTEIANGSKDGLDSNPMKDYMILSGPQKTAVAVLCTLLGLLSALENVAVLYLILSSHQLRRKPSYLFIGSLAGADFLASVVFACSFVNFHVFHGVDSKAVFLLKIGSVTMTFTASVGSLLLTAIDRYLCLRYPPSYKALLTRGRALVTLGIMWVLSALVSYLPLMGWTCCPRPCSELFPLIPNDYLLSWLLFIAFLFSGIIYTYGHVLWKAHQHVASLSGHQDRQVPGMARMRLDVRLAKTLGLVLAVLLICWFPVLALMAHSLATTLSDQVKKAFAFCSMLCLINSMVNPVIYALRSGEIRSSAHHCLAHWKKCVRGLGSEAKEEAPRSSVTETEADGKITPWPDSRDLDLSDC
Protocol: The efficacy was evaluated by measuring the amount of cyclic adenosine monophosphate (cAMP) generated from adenosine triphosphate (ATP) through the activation of adenylyl cyclase, which is triggered by G-protein alpha (G-protein a) as part of the stepwise signal transduction pathway initiated upon the binding of the test sample to the receptor. The efficacy was evaluated by measuring the amount of cyclic adenosine monophosphate (cAMP) generated from adenosine triphosphate (ATP) through G-protein alpha (G-protein a), which is activated by the binding of the sample to the receptor as part of the stepwise signal transduction pathway, and adenylyl cyclase, which is activated by G-protein a.

N.S=C(S)N1CCCC1 [APDTC]
decrease of IL-1β production [1]: 45.39%
decrease of IL-6 production [2]: 47.12%
decrease of TNF-α production [3]: 20.28%

CCCCCCC(C)(C)c1ccc([C@@H]2C[C@H](O)CC[C@H]2CCCO)c(O)c1 [CP55940]
Graph Min [4]: 5.4524
